Consider 38 compounds from patent US12692235B2, “Fused ring compound and application thereof” (WUHAN LL SCIENCE AND TECHNOLOGY DEVELOPMENT CO., LTD., priority 2019, dated 2026).

Usually IC50 stands for the concentration that inhibits the measured activity by half.

The assay has as its target T1, hP2X4 (human purinergic P2X receptor subtype 4) (Homo sapiens, UniProt Q99571).
T1 sequence (Q99571 1-404 isoform Q99571-2): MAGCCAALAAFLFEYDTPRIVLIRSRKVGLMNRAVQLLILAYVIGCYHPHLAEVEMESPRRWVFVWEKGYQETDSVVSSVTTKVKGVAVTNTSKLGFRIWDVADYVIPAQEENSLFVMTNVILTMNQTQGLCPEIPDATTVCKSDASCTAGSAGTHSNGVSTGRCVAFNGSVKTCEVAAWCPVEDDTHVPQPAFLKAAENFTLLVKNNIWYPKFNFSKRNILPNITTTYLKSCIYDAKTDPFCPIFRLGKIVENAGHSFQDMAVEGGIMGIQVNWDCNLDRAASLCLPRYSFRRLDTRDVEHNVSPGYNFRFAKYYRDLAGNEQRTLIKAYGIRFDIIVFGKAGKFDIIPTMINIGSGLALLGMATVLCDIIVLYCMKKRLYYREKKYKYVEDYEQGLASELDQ
As to conditions: P2X4 IC50 (nM), HEK293 cells stably expressing hP2X4; agonist BZ-ATP 2.5 μM; FLIPR calcium.
Take `NS(=O)(=O)c1cc(NC(=O)Cc2ccccc2Cl)cc2nc(N3CCCCC3)ccc12` [Compound 67, 2-(2-chlorophenyl)-N-(2-(piperidin-1-yl)-5-sulfamoylquinolin-7-yl)acetamide]: the IC50 fell in the range of 200 to 5000 nM.

Regarding `CC(C)COc1nccc2c(S(N)(=O)=O)cc(NC(=O)Cc3ccccc3Cl)cc12` [Compound 14, 2-(2-chlorophenyl)-N-(1-isobutoxy-5-sulfamoylisoquinolin-7-yl)acetamide], the IC50 was in the range of 10 to 50 nM.

As for `NS(=O)(=O)c1cc(NC(=O)Cc2ccccc2Cl)cc2cnc(-n3ccnc3)cc12` [Compound 22, N-(3-(1H-imidazol-1-yl)-5-sulfamoylisoquinolin-7-yl)-2-(2-chlorophenyl)acetamide], the IC50 was 10 to 50 nM.

Turning to `NS(=O)(=O)c1cc(NC(=O)Cc2ccccc2Cl)cc2c(C3CC3)nccc12` [Compound 23, 2-(2-chlorophenyl)-N-(1-cyclopropyl-5-sulfamoylisoquinolin-7-yl)acetamide], the IC50 was under 10 nM.

For `NS(=O)(=O)c1cc(NC(=O)Cc2ccccc2Cl)cc2nc(Cl)ccc12` [Compound 57], the IC50 is 50 to 200 nM.

For `NS(=O)(=O)c1cc(NC(=O)Cc2ccccc2Cl)cc2c1CCN(C1CC1)C2` [Compound 103, 2-(2-chlorophenyl)-N-(2-cyclopropyl-5-sulfamoyl-1,2,3,4-tetrahydroisoquinolin-7-yl)acetamide], the IC50 was in the range of 10 to 50 nM.

In the case of `NS(=O)(=O)c1cc(NC(=O)Cc2ccccc2Cl)cc2c(OCF)nccc12` [Compound 61, 2-(2-chlorophenyl)-N-(1-(fluoromethoxy)-5-sulfamoylisoquinolin-7-yl)acetamide], the IC50 was in the range of 50 to 200 nM.

As to `Nc1ncc2c(S(N)(=O)=O)cc(NC(=O)Cc3ccccc3Cl)cc2n1` [Compound 39, N-(2-amino-5-sulfamoylquinazolin-7-yl)-2-(2-chlorophenyl)acetamide], the IC50 lay within 200 to 5000 nM.

Consider `COc1nccc2c(S(N)(=O)=O)cc(NC(=O)Cc3c(Cl)ccc(F)c3O)cc12` [Compound 63, 2-(6-chloro-3-fluoro-2-hydroxyphenyl)-N-(1-methoxy-5-sulfamoylisoquinolin-7-yl)acetamide], for which the half-inhibitory concentration (IC50) was 200 to 5000 nM.

As for `N#Cc1ccc2cc(NC(=O)Cc3ccccc3Cl)cc(S(N)(=O)=O)c2c1` [Compound 42, 2-(2-chlorophenyl)-N-(6-cyano-4-sulfamoylnaphthalen-2-yl)acetamide], the IC50 was in the range of 10 to 50 nM.

On to `NS(=O)(=O)c1cc(NC(=O)Cc2ccccc2Cl)cc2nc(-n3cccn3)ccc12` [Compound 49, N-(2-(1H-pyrazol-1-yl)-5-sulfamoylquinolin-7-yl)-2-(2-chlorophenyl)acetamide], for which the IC50 was 50 to 200 nM.

Consider `CC(C)Oc1nccc2c(S(N)(=O)=O)cc(NC(=O)Cc3ccccc3Cl)cc12` [Compound 9, 2-(2-chlorophenyl)-N-(1-isopropoxy-5-sulfamoylisoquinolin-7-yl)acetamide], for which the IC50 lay in the range of 10 to 50 nM.

Turning to `COc1cc2c(S(N)(=O)=O)cc(NC(=O)Cc3ccccc3Cl)cc2cn1` [Compound 75, 2-(2-chlorophenyl)-N-(3-methoxy-5-sulfamoylisoquinolin-7-yl)acetamide], the IC50 lay in the range of 50 to 200 nM.

For the compound `NS(=O)(=O)c1cc(NC(=O)Cc2ccccc2Cl)cc2nc(N3CCOCC3)ccc12` [Compound 68, 2-(2-chlorophenyl)-N-(2-morpholino-5-sulfamoylquinolin-7-yl)acetamide], the IC50 lay in the range of 50 to 200 nM.

For the compound `CC(C)Nc1cc2c(S(N)(=O)=O)cc(NC(=O)Cc3ccccc3Cl)cc2cn1` [Compound 83, 2-(2-chlorophenyl)-N-(3-(isopropylamino)-5-sulfamoylisoquinolin-7-yl)acetamide], the IC50 fell in the range of 50 to 200 nM.

On to `NS(=O)(=O)c1cc(NC(=O)Cc2ccccc2Cl)cc2c1CCN(c1ccc(C(F)(F)F)cn1)C2` [Compound 117, 2-(2-chlorophenyl)-N-(5-sulfamoyl-2-(5-(trifluoromethyl)pyridin-2-yl)-1,2,3,4-tetrahydroisoquinolin-7-yl)acetamide], for which the IC50 lay within 10 to 50 nM.

With `COc1ccc(Oc2cc3c(S(N)(=O)=O)cc(NC(=O)Cc4ccccc4Cl)cc3cn2)cc1` [Compound 82, 2-(2-chlorophenyl)-N-(3-(4-methoxyphenoxy)-5-sulfamoylisoquinolin-7-yl)acetamide], the IC50 was 200 to 5000 nM.

Regarding `NS(=O)(=O)c1cc(NC(=O)Cc2ccccc2Cl)cc2c(C(F)F)nccc12` [Compound 25, 2-(2-chlorophenyl)-N-(1-(difluoromethyl)-5-sulfamoylisoquinolin-7-yl)acetamide], the IC50 was under 10 nM.

On to `C#Cc1ccc2c(S(N)(=O)=O)cc(NC(=O)Cc3ccccc3Cl)cc2n1` [Compound 86, 2-(2-chlorophenyl)-N-(2-ethynyl-5-sulfamoylquinolin-7-yl)acetamide], for which the IC50 lay within 200 to 5000 nM.

Regarding `NS(=O)(=O)c1cc(NC(=O)Cc2ccccc2Cl)cc2c1CCN(c1cc(Cl)c(F)cn1)C2` [Compound 118, N-(2-(4-chloro-5-fluoropyridin-2-yl)-5-sulfamoyl-1,2,3,4-tetrahydroisoquinolin-7-yl)-2-(2-chlorophenyl)acetamide], the IC50 fell in the range of 50 to 200 nM.

`NS(=O)(=O)c1cc(NC(=O)Cc2ccccc2Cl)cc2c(OC3CNC3)nccc12` [Compound 12, N-(1-(azetidin-3-oxy)-5-sulfamoylisoquinolin-7-yl)-2-(2-chlorophenyl)acetamide]: the IC50 was in the range of 10 to 50 nM.

For `CCN1CCc2c(cc(NC(=O)Cc3ccccc3Cl)cc2S(N)(=O)=O)C1` [Compound 109, 2-(2-chlorophenyl)-N-(2-ethyl-5-sulfamoyl-1,2,3,4-tetrahydroisoquinolin-7-yl)acetamide], the IC50 is 200 to 5000 nM.

On to `Cc1nccc2c(S(N)(=O)=O)cc(NC(=O)Cc3ccccc3Cl)cc12` [Compound 55], for which the IC50 was 50 to 200 nM.

For `NS(=O)(=O)c1cc(NC(=O)Cc2ccccc2Cl)cc2c(Oc3ccccc3)nccc12` [Compound 30, 2-(2-chlorophenyl)-N-(1-phenoxy-5-sulfamoylisoquinolin-7-yl)acetamide], the IC50 was 10 to 50 nM.

For the compound `COc1nccc2c(S(N)(=O)=O)cc(NC(=O)Cc3ccccc3C#N)cc12` [Compound 64, 2-(2-cyanophenyl)-N-(1-methoxy-5-sulfamoylisoquinolin-7-yl)acetamide], the IC50 was in the range of 200 to 5000 nM.

As to `CC(C)N1CCc2c(cc(NC(=O)Cc3ccccc3Cl)cc2S(N)(=O)=O)C1` [Compound 113, 2-(2-chlorophenyl)-N-(2-isopropyl-5-sulfamoyl-1,2,3,4-tetrahydroisoquinolin-7-yl)acetamide], the IC50 was in the range of 50 to 200 nM.

With `NS(=O)(=O)c1cc(NC(=O)Cc2ccccc2Cl)cc2nc(OCCO)ccc12` [Compound 66, 2-(2-chlorophenyl)-N-(2-(2-hydroxyethoxy)-5-sulfamoylquinolin-7-yl)acetamide], the IC50 lay in the range of 50 to 200 nM.

`NS(=O)(=O)c1cc(NC(=O)Cc2ccccc2Cl)cc2c(Cl)cncc12` [Compound 48, N-(4-chloro-8-sulfamoylisoquinolin-6-yl)-2-(2-chlorophenyl)acetamide]: the IC50 fell in the range of 200 to 5000 nM.

On to `C=CC(F)(F)N1CCc2c(cc(NC(=O)Cc3ccccc3Cl)cc2S(N)(=O)=O)C1` [Compound 119, 2-(2-chlorophenyl)-N-(2-(1,1-difluoroallyl)-5-sulfamoyl-1,2,3,4-tetrahydroisoquinolin-7-yl)acetamide], for which the IC50 is 200 to 5000 nM.

As to `COc1ccc(Oc2ccc3c(S(N)(=O)=O)cc(NC(=O)Cc4ccccc4Cl)cc3n2)cc1` [Compound 72, 2-(2-chlorophenyl)-N-(2-(4-methoxyphenoxy)-5-sulfamoylquinolin-7-yl)acetamide], the IC50 lay within 50 to 200 nM.

Regarding `NS(=O)(=O)c1cc(NC(=O)Cc2ccccc2Cl)cc2c1CCN(c1ccc(Cl)cn1)C2` [Compound 116, 2-(2-chlorophenyl)-N-(2-(5-chloropyridin-2-yl)-5-sulfamoyl-1,2,3,4-tetrahydroisoquinolin-7-yl)acetamide], the IC50 was in the range of 50 to 200 nM.

Turning to `NS(=O)(=O)c1cc(NC(=O)Cc2ccccc2Cl)cc2cncc(F)c12` [Compound 18, 2-(2-chlorophenyl)-N-(4-fluoro-5-sulfamoylisoquinolin-7-yl)acetamide], the IC50 lay within 50 to 200 nM.

Take `NS(=O)(=O)c1cc(NC(=O)Cc2ccccc2Cl)cc2c1CCN(C(=O)Oc1ccccc1)C2` [Compound 105, phenyl 7-(2-(2-chlorophenyl)acetamido)-5-sulfamoyl-3,4-dihydroisoquinoline-2(1H)-carboxylate]: the IC50 fell in the range of 50 to 200 nM.

Regarding `COc1nccc2c(S(N)(=O)=O)cc(NC(=O)Cc3cc(F)c(F)cc3Cl)cc12` [Compound 27, 2-(2-chloro-4,5-difluorophenyl)-N-(1-methoxy-5-sulfamoylisoquinolin-7-yl)acetamide], the IC50 is under 10 nM.

As to `NS(=O)(=O)c1cc(NC(=O)Cc2ccc(F)cc2Cl)cc2c1CCN(c1ccc(F)cn1)C2` [Compound 122], the IC50 was in the range of 200 to 5000 nM.

As for `Cc1ccc(N2CCc3c(cc(NC(=O)Cc4ccccc4Cl)cc3S(N)(=O)=O)C2)nc1` [Compound 121, 2-(2-chlorophenyl)-N-(2-(5-methylpyridin-2-yl)-5-sulfamoyl-1,2,3,4-tetrahydroisoquinoline-7-yl)acetamide], the IC50 was 50 to 200 nM.

With `NS(=O)(=O)c1cc(NC(=O)Cc2ccccc2Cl)cc2c(OC3CCCC3)nccc12` [Compound 13], the half-inhibitory concentration (IC50) lay in the range of 10 to 50 nM.

As for `COc1nccc2c(S(N)(=O)=O)cc(NC(=O)Cc3c(Cl)ccc(F)c3F)cc12` [Compound 54, 2-(6-chloro-2,3-difluorophenyl)-N-(1-methoxy-5-sulfamoylisoquinolin-7-yl)acetamide], the IC50 was 200 to 5000 nM.
